Tests used:
[1] = system: colon carcinoma lines that do not carry the 677C/T mutation in MTHFR; assay: Methotrexate added to colon carcinoma lines in culture (cell kill), lines without the MTHFR mutation; type: cell-based; details: colon carcinoma lines without the 677C/T MTHFR mutation; read-out: IC50 (concentration needed to kill half the cells)
Description: (§1) Various doses of methotrexate (a drug used in treatment of cancer and arthritis, possibly other diseases) were added to colon carcinoma lines in culture. […] To extrapolate to the human condition, patients with this MTHFR mutation might require lower doses of methotrexate for therapy, or might be subject to methotrexate toxicity at high doses.

[2] = system: colon carcinoma lines that carry the 677C/T mutation in MTHFR; assay: Methotrexate added to colon carcinoma lines in culture (cell kill), lines with the MTHFR mutation; type: cell-based; details: colon carcinoma lines with the 677C/T MTHFR mutation; read-out: IC50 (concentration needed to kill half the cells)
Description: as §1

[3] = system: human MTHFR; assay: Enzymatic and thermolability assay of E. coli extracts expressing wild-type or mutagenized MTHFR cDNA; type: biochemical
Description: Overnight cultures of JM105™ containing vector alone, vector+wild-type MTHFR cDNA, or vector+mutagenized cDNA were grown at 370° C. in 2×YT media with 0.05 mg/ml ampicillin. Fresh 10 ml. cultures of each were inoculated with approximately 50 μL of overnight cultures for a starting O.D. of 0.05, and were grown at 370° C. to an O.D. of 1 at 420 nM. Cultures were then induced for 2 hrs. with 1 mM IPTG and pelleted. The cells were resuspended in TE buffer with 2 μg/ml aprotinin and 2 μg/ml leupeptin (3.5×wet weight of cells). Cell suspensions were sonicated on ice for 3×15 sec. to break open cell membranes and then centrifuged for 30 min. at 4° C. to pellet cell debris and unlysed cells. The supernatant was removed and assayed for protein concentration with the Bio-Rad™ protein assay. […] Enzymatic assays were performed by established procedures; pre-treating the extracts at 46° C. for 5 min. before determining activity assessed thermolability. Specific activities (nmol formaldehyde/hr./mg. protein) were calculated for the 2 cDNA-containing constructs after subtraction of the values obtained with vector alone (to subtract background E. Coli MTHFR activity).

Row | Compound | IC50 [1] | IC50 [2] | mean specific activity before heating ([3]; Exp. 1, vector-alone value subtracted) | mean specific activity before heating ([3]; Exp. 2, vector-alone value subtracted)
1 | CN(Cc1cnc2nc(N)nc(N)c2n1)c1ccc(C(=O)N[C@@H](CCC(=O)O)C(=O)O)cc1 [methotrexate] | ~150 nM | ~20 nM |  | 
2 | MTHFR: recombinant human methylenetetrahydrofolate reductase, about 70 kDa, expressed in E. coli from the wild-type 2.2 kb cDNA |  |  | 3.8 nmol formaldehyde/hr./mg. protein | 6.2 nmol formaldehyde/hr./mg. protein

From patent publication US20050221355A1, “cDNA for human methylenetetrahydrofolate reductase and uses thereof” (McGill University, priority 1994, published 2005)
